Patent US9845322B2 (Hoffmann-La Roche Inc., priority 2016, dated 2017)
pIC50: −log10 of the molar value. Read-outs that look alike come from different tables or passages of the source.

Assays:
[1] = system: HBV DNA production in HepG2.2.15 cells; assay: HBV DNA assay (real-time qPCR/TaqMan of extracellular HBV DNA in cell supernatant); format: cell-based; conditions: Hepatitis B virus, 144 h, extracellular HBV DNA copy number, six days after initial administration, read-out: IC50 (Anti HBV DNA production activity)
Experimental: HepG2.2.15 cells (Acs et al. Proc Natl Acad Sci USA, 84, (1987), 4641-4), a constitutively HBV-expressing cell line were cultured in DMEM+Glutamax-I medium (Invitrogen, Carlsbad, Calif., USA), supplemented with 10% fetal bovine serum (Invitrogen) and G418 (Invitrogen) at a final concentration of 200 mg/L and maintained in 5% CO2 at 37° C.
The assay employs real-time qPCR (TaqMan) to directly measure extracellular HBV DNA copy number in the cell supernatant. HepG2.2.15 cells were plated in 96-well microtiter plates before treatment with complete medium (DMEM, Glutamax, 10% FBS, 1% Penicillin/Streptomycin, 250 μg/mL Genetycin, final DMSO concentration is 1%). Only the interior wells were utilized to reduce “edge effects” observed during cell culture, the exterior wells were filled with complete medium to help minimize sample evaporation. The HepG2.2.15 cells were treated 1 h later with various concentrations of a test compound in duplicate (top concentration used at 5 μM, 2 μM or 0.5 μM according to the HBsAg IC50 observed, with ⅓ successive dilutions (total of 10 dilutions). Six days following the initial administration of the test compound, the cell culture supernatant was collected; DNA extraction was performed by automated system (Magnapure) and then used in a real-time qPCR/TaqMan assay to determine HBV DNA copy numbers. Antiviral activity was calculated from the reduction in HBV DNA levels (IC50). The compounds of the present invention were tested for their capacity to inhibit HBV DNA as described herein.

[2] = system: HBsAg secretion in HepG2.2.15 cells; assay: HBsAg assay (chemiluminescence immunoassay of secreted HBsAg in culture supernatant); format: cell-based, HBV; conditions: concentration at which HBsAg secretion was reduced by 50% compared to the no drug control, read-out: IC50 (HBsAg assay)
Outline: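 IC50 taken from dose-response curves as the concentration halving secreted HBsAg relative to DMSO control. Measured by chemiluminescence immunoassay of culture supernatant from constitutively HBV-expressing HepG2.2.15 cells, seeded at 1.5×10^4/well in duplicate and exposed to three-fold serial compound dilutions at 1% final DMSO.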

[3] = Hepatitis B virus, HepG2.2.15, HepG2.2.15 cells

Structure (SMILES) | pIC50 [1] | pIC50 ([2]; HepG2.2.15 cells) | pIC50 [2, 3]
COc1cc(N2CCc3nc(-c4ncccn4)ncc3C2C)cc(F)c1F (single isomer, unassigned; (-)) [Example 17, (−)-6-(3,4-difluoro-5-methoxy-phenyl)-5-methyl-2-pyrimidin-2-yl-7,8-dihydro-5H-pyrido[4,3-d]pyrimidine] | 8.70 | 8.10 | 
COc1cc(N2CCc3nc(-c4ncccn4)ncc3C2C)cc(Cl)c1F (single isomer, unassigned; (-)) [Example 43, (−)-6-(3-chloro-4-fluoro-5-methoxy-phenyl)-5-methyl-2-pyrimidin-2-yl-7,8-dihydro-5H-pyrido[4,3-d]pyrimidine] | 8.10 | 7.74 | 
COc1cc(F)cc(N2CCc3nc(-c4ncccn4)ncc3C2C)c1 (single isomer, unassigned; (-)) [Example 73, (−)-6-(3-fluoro-5-methoxy-phenyl)-5-methyl-2-pyrimidin-2-yl-7,8-dihydro-5H-pyrido[4,3-d]pyrimidine] | 8.30 | 7.74 | 
CC1c2cnc(-c3ncccn3)nc2CCN1c1cc(OCCCCCC(N)=O)cc(F)n1 (single isomer, unassigned; (-)) [Example 165, (−)-6-[[2-fluoro-6-[5-methyl-2-pyrimidin-2-yl-7,8-dihydro-5H-pyrido[4,3-d]pyrimidin-6-yl]-4-pyridyl]oxy]hexanamide] | > 9.00 |  | 7.89
CC1c2cnc(-c3ncccn3)nc2CCN1c1cc(N2CCCC2)cc(F)n1 (single isomer, unassigned; (-)) [Example 200, (−)-6-(6-fluoro-4-pyrrolidin-1-yl-2-pyridyl)-5-methyl-2-pyrimidin-2-yl-7,8-dihydro-5H-pyrido[4,3-d]pyrimidine] | > 9.00 | 8.70 | 
CNc1cc(F)nc(N2CCc3nc(-c4ncccn4)ncc3C2C)c1 (single isomer, unassigned; (-)) [Example 203, (−)-2-fluoro-N-methyl-6-[5-methyl-2-pyrimidin-2-yl-7,8-dihydro-5H-pyrido[4,3-d]pyrimidin-6-yl]pyridin-4-amine] | 9.80 |  | 8.22
CC1c2cnc(-c3ncccn3)nc2CCN1c1cc(N(C)C)cc(F)n1 (single isomer, unassigned; (-)) [Example 207, (−)-2-fluoro-N,N-dimethyl-6-[5-methyl-2-pyrimidin-2-yl-7,8-dihydro-5H-pyrido[4,3-d]pyrimidin-6-yl]pyridin-4-amine] | 9.47 | 8.70 | 
CC1c2cnc(-c3ncccn3)nc2CCN1c1cc(F)c(F)c(OCCCCC(N)=O)c1 (centres unmarked) [Example 64, 5-[2,3-difluoro-5-(5-methyl-2-pyrimidin-2-yl-7,8-dihydro-5H-pyrido[4,3-d]pyrimidin-6-yl)phenoxy]pentanamide] | 8.40 |  | 7.21
CC1c2cnc(-c3ncccn3)nc2CCN1c1cc(F)c(F)c(OCCCCCCC(=O)O)c1 (centres unmarked) [Example 86, 7-[2,3-difluoro-5-(5-methyl-2-pyrimidin-2-yl-7,8-dihydro-5H-pyrido[4,3-d]pyrimidin-6-yl)phenoxy]heptanoic acid] | 9.00 |  | 7.00
CC1c2cnc(-c3ncccn3)nc2CCN1c1cc(F)c(F)c(OCCCCCCC(N)=O)c1 (centres unmarked) [Example 87, 7-[2,3-difluoro-5-(5-methyl-2-pyrimidin-2-yl-7,8-dihydro-5H-pyrido[4,3-d]pyrimidin-6-yl)phenoxy]heptanamide] | 8.00 |  | 7.14
CC1c2cnc(-c3ncccn3)nc2CCN1c1cc(OCC(F)F)cc(F)n1 (centres unmarked) [Example 149, 6-[4-(2,2-difluoroethoxy)-6-fluoro-2-pyridyl]-5-methyl-2-pyrimidin-2-yl-7,8-dihydro-5H-pyrido[4,3-d]pyrimidine] | 9.00 |  | 8.00
CC1c2cnc(-c3ncccn3)nc2CCN1c1cc(F)cc(N2CCNC(=O)C2)n1 (centres unmarked) [Example 214, 4-[4-fluoro-6-(5-methyl-2-pyrimidin-2-yl-7,8-dihydro-5H-pyrido[4,3-d]pyrimidin-6-yl)-2-pyridyl]piperazin-2-one] | 8.14 |  | 7.66
CC1c2cnc(-c3ncccn3)nc2CCN1c1cc(N2CCNC(=O)C2)cc(F)n1 (centres unmarked) [Example 215, 4-[2-fluoro-6-(5-methyl-2-pyrimidin-2-yl-7,8-dihydro-5H-pyrido[4,3-d]pyrimidin-6-yl)-4-pyridyl]piperazin-2-one] | 9.09 |  | 7.19
